Measurements as given in patent publication US7705030B2, “Amino-5-(5-membered)hetero-arylimidazolone compounds and the use thereof for β-secretase modulation” (Wyeth LLC, priority 2005, dated 2010).
Where a name gives a salt, the structure may show the parent alone.

Experiments:
human BACE1 = human BACE1 (Homo sapiens, UniProt P56817); assay: Fluorescent kinetic assay: Evaluation of BACE-1 Binding Affinity of Test Compounds; format: biochemical; details: 10 nM enzyme, 25 μM substrate WABC-6, 50 mM Na-Acetate pH 4.5, room temperature
human BACE1, sequence (P56817 46-501): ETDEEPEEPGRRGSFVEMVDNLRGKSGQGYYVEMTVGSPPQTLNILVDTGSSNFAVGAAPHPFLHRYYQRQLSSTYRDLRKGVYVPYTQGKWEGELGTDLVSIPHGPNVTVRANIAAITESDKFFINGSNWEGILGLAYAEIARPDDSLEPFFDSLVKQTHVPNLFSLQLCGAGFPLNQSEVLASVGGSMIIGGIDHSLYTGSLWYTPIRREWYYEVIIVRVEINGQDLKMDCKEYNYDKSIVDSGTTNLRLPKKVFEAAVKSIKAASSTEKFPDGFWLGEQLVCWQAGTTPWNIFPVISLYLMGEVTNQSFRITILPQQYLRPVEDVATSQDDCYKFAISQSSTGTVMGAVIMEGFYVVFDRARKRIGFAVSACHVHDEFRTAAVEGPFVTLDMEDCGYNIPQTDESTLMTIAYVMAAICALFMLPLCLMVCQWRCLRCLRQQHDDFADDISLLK
Method: Evaluation of BACE-1 Binding Affinity of Test Compounds
Fluorescent Kinetic Assays
Final Assay Conditions: 10 nM human BACE1 (or 10 nM Murine BACE1, 1.5 nM human BACE2), 25 μM substrate (WABC-6, MW 1549.6, from AnaSpec), Buffer: 50 mM Na-Acetate, pH 4.5, 0.05% CHAPS, 25% PBS, room temperature. Na-Acetate was from Aldrich, Cat.# 24, 124-5, CHAPS was from Research Organics, Cat. # 1304C 1×, PBS was from Mediatech (Cellgro), Cat# 21-031-CV, peptide substrate Abz[…]pa was from AnaSpec, Peptide Name: WABC-6 Determination of stock substrate (Abz[…]pa) concentration: ˜25 mM stock solution is made in DMSO using the peptide weight and MW, and diluted to ˜25 μM (1:1000) in 1×PBS. Concentration is determined by absorbance at 354 nm using an extinction coefficient ε of 18172 M^−1 cm^−1, the concentration of stock substrate is corrected, and the substrate stock stored in small aliquots in −80° C. [Substrate Stock]=ABS^354 nm*10^6/18172 (in […]) The extinction coefficient ε^354 nm was adapted from TACE peptide substrate, which had the same quencher-fluorophore pair.
Determination of Stock Enzyme Concentration: the stock concentration of each enzyme is determined by absorbance at 280 nm using an ε of 64150 M^−1 cm^−1 for hBACE1 and MuBACE1, 62870 M^−1 cm^−1 for hBACE2 in 6 M Guanidinium Hydrochloride (from Research Organics, Cat. # 5134G-2), pH ˜6. The extinction coefficient ε^280 nm for each enzyme was calculated based on known amino acid composition and published extinction coefficients for Trp ([…]) and Tyr ([…]) residues (Anal. Biochem. 182, 319-326).
Dilution and mixing steps: total reaction volume: 100 μL
2× inhibitor dilutions in buffer A(66.7 mM Na-Acetate, pH 4.5, 0.0667% CHAPS) were prepared,
4× enzyme dilution in buffer A(66.7 mM Na-Acetate, pH 4.5, 0.0667% CHAPS) were prepared,
100 μM substrate dilution in 1×PBS was prepared, and
50 μL 2× Inhibitor, 25 μL 100 μM substrate are added to each well of 96-well plate (from DYNEX Technologies, VWR #: 11311-046), immediately followed by 25 μL 4× enzyme (added to the inhibitor and substrate mix), and the fluorescence readings are initiated.
Fluorescence Readings: Readings at λex 320 nm and λem 420 nm are taken every 40 sec for 30 min at room temperature and the linear slope for substrate cleavage rate (vi) determined.
Testing at least 10 different inhibitor concentrations is preferred.

melting point [°C]	IC50 (human BACE1) [nM]	Structure (SMILES)
190 to 193	–	CCn1cc(C2(c3cccc(-c4cccnc4F)c3)N=C(N)N(C)C2=O)cc1/C=N/OC (stereo not shown) (as salt: hydrochloride) [Example 241, 4-[2-Amino-4-[3-(2-fluoropyridin-3-yl)phenyl]-1-methyl-5-oxo-4,5-dihydro-1H-imidazol-4-yl]-1-ethyl-1H-pyrrole-2-carbaldehyde O-methyloxime hydrochloride]
235 to 238	110 to 1000	Cc1c(C2(c3cccc(-c4cccnc4F)c3)N=C(N)N(C)C2=O)cnn1CC(F)(F)F (stereo not shown) [Example 2, 2-Amino-5-[3-(2-fluoropyridin-3-yl)phenyl]-3-methyl-5-[5-methyl-1-(2,2,2-trifluoroethyl)-1H-pyrazol-4-yl]-3,5-dihydro-4H-imidazol-4-one]
94 to 98	10 to 100	CC(C)Cn1cc(C2(c3cccc(-c4cccnc4F)c3)N=C(N)N(C)C2=O)cn1 (stereo not shown) [Example 3, 2-Amino-5-[3-(2-fluoropyridin-3-yl)phenyl]-5-(1-isobutyl-1H-pyrazol-4-yl)-3-methyl-3,5-dihydro-4H-imidazol-4-one]
88 to 92	10 to 100	CCCCn1cc(C2(c3cccc(-c4cccnc4F)c3)N=C(N)N(C)C2=O)cn1 (stereo not shown) [Example 4, 2-Amino-5-(1-butyl-1H-pyrazol-4-yl)-5-[3-(2-fluoropyridin-3-VI)phenyl]-3-methyl-3,5-dihydro-4H-imidazol-4-one]
118 to 122	10 to 100	CC(C)Cn1cc(C2(c3cccc(-c4cncnc4)c3)N=C(N)N(C)C2=O)cn1 (stereo not shown) [Example 5, 2-Amino-5-(1-isobutyl-1H-pyrazol-4-yl)-3-methyl-5-(3-pyrimidin-5-ylphenyl)-3,5-dihydro-4H-imidazol-4-one]
94 to 98	10 to 100	CCCCn1cc(C2(c3cccc(-c4cncnc4)c3)N=C(N)N(C)C2=O)cn1 (stereo not shown) [Example 6, 2-Amino-5-(1-butyl-1H-pyrazol-4-yl)-3-methyl-5-(3-pyrimidin-5-ylphenyl)-3,5-dihydro-4H-imidazol-4-one]
> 225	110 to 1000	CN1C(=O)C(c2ccc(F)c(-c3cccnc3F)c2)(c2cnn(CC(F)(F)F)c2)N=C1N (stereo not shown) [Example 7, 2-Amino-5-[4-fluoro-3-(2-fluoropyridin-3-yl)phenyl]-3-methyl-5-[1-(2,2,2-trifluoroethyl)-1H-pyrazol-4-yl]-3,5-dihydro-4H-imidazol-4-one]
115 to 117	110 to 1000	CN1C(=O)C(c2ccc(F)c(-c3cncnc3)c2)(c2cnn(CC(F)(F)F)c2)N=C1N (stereo not shown) [Example 8, 2-Amino-5-(4-fluoro-3-pyrimidin-5-ylphenyl)-3-methyl-5-[1-(2,2,2-trifluoroethyl)-1H-pyrazol-4-yl]-3,5-dihydro-4H-imidazol-4-one]
120 to 121	10 to 100	CCn1cc(C2(c3ccc(F)c(-c4cncnc4)c3)N=C(N)N(C)C2=O)cn1 (stereo not shown) [Example 9, 2-Amino-5-(1-ethyl-1H-pyrazol-4-yl)-5-(4-fluoro-3-pyrimidin-5-ylphenyl)-3-methyl-3,5-dihydro-4H-imidazol-4-one]
84 to 85	10 to 100	CCn1cc(C2(c3ccc(F)c(-c4cccnc4F)c3)N=C(N)N(C)C2=O)cn1 (stereo not shown) [Example 10, 2-Amino-5-(1-ethyl-1H-pyrazol-4-yl)-5-[4-fluoro-3-(2-fluoropyridin-3-yl)phenyl]-3-methyl-3,5-dihydro-4H-imidazol-4-one]
128 to 132	110 to 1000	Cc1nn(CC(F)(F)F)cc1C1(c2cccc(-c3cccnc3F)c2)N=C(N)N(C)C1=O (stereo not shown) [Example 11, 2-Amino-5-[3-(2-fluoropyridin-3-yl)phenyl]-3-methyl-5-[3-methyl-1-(2,2,2-trifluoroethyl)-1H-pyrazol-4-yl]-3,5-dihydro-4H-imidazol-4-one]
154 to 159	110 to 1000	Cc1sccc1C1(c2cccc(-c3cncnc3)c2)N=C(N)N(C)C1=O (stereo not shown) [Example 27, 2-Amino-5-(2-methylthien-3-yl)-3-methyl-5-(3-pyrimidin-5-ylphenyl)-3,5-dihydro-4H-imidazol-4-one]
144 to 146	10 to 100	CCc1cc(C2(c3cccc(-c4cncnc4)c3)N=C(N)N(C)C2=O)cs1 (stereo not shown) [Example 29]
128 to 134	110 to 1000	CCc1cc(C2(c3cccc(-c4cncnc4)c3)N=C(N)N(C)C2=O)c(C)s1 (stereo not shown) [Example 31]
236 to 240	10 to 100	CN1C(=O)C(c2cccc(-c3cncnc3)c2)(c2csc(Cl)c2)N=C1N (stereo not shown) [Example 32]
223	10 to 100	CN1C(=O)C(c2ccsc2)(c2cccc(-c3cnccn3)c2)N=C1N (stereo not shown) [Example 33]
138 to 140	–	CCn1ccc(C2(c3cccc(Br)c3)N=C(N)N(C)C2=O)c1 (stereo not shown) [Example 50, 2-Amino-5-(3-bromophenyl)-5-(1-ethyl-1H-pyrrol-3-yl)-3-methyl-3,5-dihydro-4H-imidazol-4-one]
74 to 76	–	CN1C(=O)C(c2cccc(Br)c2)(c2ccn(CC(F)(F)F)c2)N=C1N (stereo not shown) [Example 51, 2-Amino-5-(3-bromophenyl)-3-methyl-5-[1-(2,2,2-trifluoroethyl)-1H-pyrrol-3-yl]-3,5-dihydro-4H-imidazol-4-one]
80 to 82	–	CN1C(=O)C(c2cccc(Br)c2)(c2cnn(CC(F)(F)F)c2)N=C1N (stereo not shown) [Example 81, 2-amino-5-(3-bromophenyl)-3-methyl-5-[1-(2,2,2-trifluoroethyl)-1H-pyrazol-4-yl]-3,5-dihydro-4H-imidazol-4-one]
80 to 82	–	CC(C)n1cc(C2(c3ccc(F)c(Br)c3)N=C(N)N(C)C2=O)cn1 (stereo not shown) [Example 95, 2-amino-5-(3-bromo-4-fluorophenyl)-5-(1-isopropyl-1H-pyrazol-4-yl)-3-methyl-3,5-dihydro-4H-imidazol-4-one]
110 to 113	–	CC(C)n1cc(C2(c3ccc(F)c(-c4cncnc4)c3)N=C(N)N(C)C2=O)cn1 (stereo not shown) [Example 96]
93 to 103	–	CCC1(c2cc(C3(c4cccc(-c5cccnc5F)c4)N=C(N)N(C)C3=O)cs2)OCCO1 (stereo not shown) [Example 113]
98 to 112	–	CCC(=O)c1cc(C2(c3cccc(-c4cccnc4F)c3)N=C(N)N(C)C2=O)cs1 (stereo not shown) [Example 115, 2-Amino-5-[3-(2-fluoro-pyridin-3-yl)-phenyl]-3-methyl-5-(5-propionyl-thiophen-3-yl)-3,5-dihydro-imidazol-4-one]
–	10 to 100	CCC(=O)c1cc([C@]2(c3cccc(-c4cccnc4F)c3)N=C(N)N(C)C2=O)cn1CC(F)(F)F [Example 224A, (5S)-2-amino-5-[3-(2-fluoropyridin-3-yl)phenyl]-3-methyl-5-[5-propionyl-1-(2,2,2-trifluoroethyl)-1H-pyrrol-3-yl]-3,5-dihydro-4H-imidazol-4-one]
–	> 1000	CCC(=O)c1cc([C@@]2(c3cccc(-c4cccnc4F)c3)N=C(N)N(C)C2=O)cn1CC(F)(F)F [Example 224B, (5R)-2-amino-5-[3-(2-fluoropyridin-3-yl)phenyl]-3-methyl-5-[5-propionyl-1-(2,2,2-trifluoroethyl)-1H-pyrrol-3-yl]-3,5-dihydro-4H-imidazol-4-one]
–	10 to 100	CCn1cc(C2(c3cccc(-c4cccnc4F)c3)N=C(N)N(C)C2=O)cc1/C=N/OC (stereo not shown) [Example 241, 4-[2-Amino-4-[3-(2-fluoropyridin-3-yl)phenyl]-1-methyl-5-oxo-4,5-dihydro-1H-imidazol-4-yl]-1-ethyl-1H-pyrrole-2-carbaldehyde O-methyloxime hydrochloride]
–	10 to 100	CCn1cc([C@]2(c3cccc(-c4cccnc4F)c3)N=C(N)N(C)C2=O)cc1C=O [Example 247, 4-{(4S)-2-Amino-4-[3-(2-fluoropyridin-3-yl)phenyl]-1-methyl-5-oxo-4,5-dihydro-1H-imidazol-4-yl}-1-ethyl-1H-pyrrole-2-carbaldehyde]
–	10 to 100	CC(=O)Cc1cc([C@]2(c3cccc(-c4cccnc4F)c3)N=C(N)N(C)C2=O)cn1CCCF [Example 248, (5S)-2-Amino-5-[1-(3-fluoropropyl)-5-(2-oxopropyl)-1H-pyrrol-3-yl]-5-[3-(2-fluoropyridin-3-yl)phenyl]-3-methyl-3,5-dihydro-4H-imidazol-4-one]
